# Values joined by “and” are separate entries in the source; they are usually repeats but may differ in a detail not shown here. Equal values may be shown once.
# Tested on: LG0703-F498-PDC complex spheroid growth
# Test: Anticancer human tumor LG0703-F498-PDC patient-derived lung adenocarcinoma cell line growth inhibition [AhR]
# Details: for viability, T/C: stronger effect = lower value
# In short: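 Complex tumor spheroids co-cultured with HUVEC and human MSC stroma; AhR antagonists tested in combination with standard-of-care and investigational agents. Top concentration at or near clinical Cmax (else 10 microM), half-log dilutions; growth expressed as percent test/control.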
# [1] = curve of first compound, second compound 0.1 µM
# [2] = curve of first compound, second compound 0.316 µM
# [3] = curve of first compound, second compound 1 µM
# [4] = curve of first compound, second compound 3.16 µM
# [5] = curve of first compound, second compound 10 µM
# 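Note: luminescence taken as a proxy for viable cell amount.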
# 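Throughout, for viability, T/C: percent of DMSO vehicle control where 100% means growth equal to vehicle.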
smiles,measurement,setting,value
NS(=O)(=O)OCC1CC(n2ccc3c(NC4CCc5ccccc54)ncnc32)CC1O (stereo not drawn),"viability, T/C",compound 0.0316 µM,94.3% and 100% and 101%
same,"viability, T/C",compound 0.1 µM,105% and 96.8% and 99.1%
same,"viability, T/C",compound 0.316 µM,107% and 102% and 97.8%
same,"viability, T/C",compound 1 µM,89.2% and 103% and 86.7%
same,"viability, T/C",compound 3.16 µM,65.2% and 76.8% and 62.9%
same,"viability, T/C",compound 10 µM,35.8% and 47% and 34.9%
same,IC50,curve of compound,5660 nM and 8900 nM and 5360 nM
Nc1ncn(C2CC(O)C(CO)O2)c(=O)n1 (stereo not drawn),"viability, T/C",compound 0.00316 µM,101% (2×) and 107%
same,"viability, T/C",compound 0.01 µM,102% (2×) and 103%
same,"viability, T/C",compound 0.0316 µM,107% and 91.4% and 87.8%
same,"viability, T/C",compound 0.1 µM,88.2% and 98.2% and 82.9%
same,"viability, T/C",compound 0.316 µM,99.3% and 80.2% and 89.1%
same,"viability, T/C",compound 1 µM,80% and 86.7% and 87.6%
same,IC50,curve of compound,> 1000 nM
O=C(C=Cn1cnc(-c2cc(C(F)(F)F)cc(C(F)(F)F)c2)n1)NNc1cnccn1,"viability, T/C",compound 0.00949 µM,84.1% and 93.9% and 79.2%
same,"viability, T/C",compound 0.03 µM,83.7% and 79.7% and 62.9%
same,"viability, T/C",compound 0.0949 µM,55.5% and 52% and 41.8%
same,"viability, T/C",compound 0.3 µM,48.2% and 37.7% and 35.7%
same,"viability, T/C",compound 0.949 µM,40.9% and 39.8% and 39.1%
same,"viability, T/C",compound 3 µM,31.4% and 35.3% and 32.7%
same,IC50,curve of compound,215 nM and 109 nM and 60.6 nM
CC(C)CC(NC(=O)C(Cc1ccccc1)NC(=O)c1cnccn1)B(O)O (stereo not drawn) + Cc1cncc(-c2nc(NCCc3c[nH]c4ccccc34)c3ncn(C(C)C)c3n2)c1,IC50,[1],4.06 nM
same,IC50,[2],4.36 nM
same,IC50,[3],3.62 nM
same,IC50,[4],1.12 nM
same,IC50,[5],< 0.949 nM
same,"viability, T/C","second compound 0.1 µM, first compound 0.000949 µM",90.8%
same,"viability, T/C","second compound 0.1 µM, first compound 0.003 µM",65.4%
same,"viability, T/C","second compound 0.1 µM, first compound 0.00949 µM",6.78%
same,"viability, T/C","second compound 0.1 µM, first compound 0.03 µM",0.57%
same,"viability, T/C","second compound 0.1 µM, first compound 0.0949 µM",0.07%
same,"viability, T/C","second compound 0.1 µM, first compound 0.3 µM",0.18%
same,"viability, T/C","second compound 0.316 µM, first compound 0.000949 µM",101%
same,"viability, T/C","second compound 0.316 µM, first compound 0.003 µM",71.3%
same,"viability, T/C","second compound 0.316 µM, first compound 0.00949 µM",5.68%
same,"viability, T/C","second compound 0.316 µM, first compound 0.03 µM",0.52%
same,"viability, T/C","second compound 0.316 µM, first compound 0.0949 µM",0.13%
same,"viability, T/C","second compound 0.316 µM, first compound 0.3 µM",0.41%
same,"viability, T/C","second compound 1 µM, first compound 0.000949 µM",115%
same,"viability, T/C","second compound 1 µM, first compound 0.003 µM",58.9%
same,"viability, T/C","second compound 1 µM, first compound 0.00949 µM",4.01%
same,"viability, T/C","second compound 1 µM, first compound 0.03 µM",0.74%
same,"viability, T/C","second compound 1 µM, first compound 0.0949 µM",0.04%
same,"viability, T/C","second compound 1 µM, first compound 0.3 µM",0.35%
same,"viability, T/C","second compound 3.16 µM, first compound 0.000949 µM",52.8%
same,"viability, T/C","second compound 3.16 µM, first compound 0.003 µM",33.7%
same,"viability, T/C","second compound 3.16 µM, first compound 0.00949 µM",1.21%
same,"viability, T/C","second compound 3.16 µM, first compound 0.03 µM",0.06%
same,"viability, T/C","second compound 3.16 µM, first compound 0.0949 µM",0.5%
same,"viability, T/C","second compound 3.16 µM, first compound 0.3 µM",0.67%
same,"viability, T/C","second compound 10 µM, first compound 0.000949 µM",1.32%
same,"viability, T/C","second compound 10 µM, first compound 0.003 µM",0.98%
same,"viability, T/C","second compound 10 µM, first compound 0.00949 µM",0.8%
same,"viability, T/C","second compound 10 µM, first compound 0.03 µM",0.13%
same,"viability, T/C","second compound 10 µM, first compound 0.0949 µM",1.1%
same,"viability, T/C","second compound 10 µM, first compound 0.3 µM",1.18%
COc1cc(C2c3cc4c(cc3C(OC3OC5COC(C)OC5C(O)C3O)C3COC(=O)C23)OCO4)cc(OC)c1O (stereo not drawn),"viability, T/C",compound 0.0316 µM,95.8% and 105% and 103%
same,"viability, T/C",compound 0.1 µM,109% and 113% and 98.3%
same,"viability, T/C",compound 0.316 µM,99.8% and 102% and 96.6%
same,"viability, T/C",compound 1 µM,86.4% and 106% and 110%
same,"viability, T/C",compound 3.16 µM,80.5% and 96.5% and 87.8%
same,"viability, T/C",compound 10 µM,64.3% and 75.6% and 70.2%
same,IC50,curve of compound,> 10000 nM
CC(C)c1c(-c2ccccc2)nc2c(C#N)c[nH]n2c1=O + Cc1cncc(-c2nc(NCCc3c[nH]c4ccccc34)c3ncn(C(C)C)c3n2)c1,IC50,[1],> 10000 nM
same,IC50,[2],> 10000 nM
same,IC50,[3],> 10000 nM
same,IC50,[4],< 31.6 nM
same,IC50,[5],< 31.6 nM
same,"viability, T/C","second compound 0.1 µM, first compound 0.0316 µM",108%
same,"viability, T/C","second compound 0.1 µM, first compound 0.1 µM",101%
same,"viability, T/C","second compound 0.1 µM, first compound 0.316 µM",87.2%
same,"viability, T/C","second compound 0.1 µM, first compound 1 µM",101%
same,"viability, T/C","second compound 0.1 µM, first compound 3.16 µM",89.1%
same,"viability, T/C","second compound 0.1 µM, first compound 10 µM",81.6%
same,"viability, T/C","second compound 0.316 µM, first compound 0.0316 µM",97.3%
same,"viability, T/C","second compound 0.316 µM, first compound 0.1 µM",93.4%
same,"viability, T/C","second compound 0.316 µM, first compound 0.316 µM",96.5%
same,"viability, T/C","second compound 0.316 µM, first compound 1 µM",95.8%
same,"viability, T/C","second compound 0.316 µM, first compound 3.16 µM",103%
same,"viability, T/C","second compound 0.316 µM, first compound 10 µM",79.5%
same,"viability, T/C","second compound 1 µM, first compound 0.0316 µM",106%
same,"viability, T/C","second compound 1 µM, first compound 0.1 µM",119%
same,"viability, T/C","second compound 1 µM, first compound 0.316 µM",101%
same,"viability, T/C","second compound 1 µM, first compound 1 µM",91.6%
same,"viability, T/C","second compound 1 µM, first compound 3.16 µM",91.9%
same,"viability, T/C","second compound 1 µM, first compound 10 µM",89.6%
same,"viability, T/C","second compound 3.16 µM, first compound 0.0316 µM",39.1%
same,"viability, T/C","second compound 3.16 µM, first compound 0.1 µM",40%
same,"viability, T/C","second compound 3.16 µM, first compound 0.316 µM",36.9%
same,"viability, T/C","second compound 3.16 µM, first compound 1 µM",31.7%
same,"viability, T/C","second compound 3.16 µM, first compound 3.16 µM",29.9%
same,"viability, T/C","second compound 3.16 µM, first compound 10 µM",33%
same,"viability, T/C","second compound 10 µM, first compound 0.0316 µM",1.38%
same,"viability, T/C","second compound 10 µM, first compound 0.1 µM",1.01%
same,"viability, T/C","second compound 10 µM, first compound 0.316 µM",1.64%
same,"viability, T/C","second compound 10 µM, first compound 1 µM",2.22%
same,"viability, T/C","second compound 10 µM, first compound 3.16 µM",0.57%
same,"viability, T/C","second compound 10 µM, first compound 10 µM",1.89%
